Reference: article PMC12503906, “Novel Pyrazolo [1,5‐a]−1,3,5‐Triazine Derivatives as CDK7 Inhibitors: Synthesis and Biological Insights in Pancreatic Ductal Adenocarcinoma Models” (Chemmedchem, 2025)

Key:
PATU‐T GR = test: Wound healing assay, PATU‐T GR; type: cell-based; conditions: 1× and 4 × IC50, up to 24 h
Method: The wound healing assay was used to test the migratory ability of the selected cells post‐treatment. Cells (5 × 10^4 /well) were seeded on 96‐well. After 24 h, cells reached the optimal 100% confluency, and an artificial wound was created with a 96‐well Pintool Scratcher. The cells were immediately washed with complete medium, in order to remove cell debris after the scratch, and images of the wells were captured at time 0 h, right before the addition of the treatment. Each drug (1b and 1g) was previously diluted in the respective medium at two different concentrations: 1 × IC50 and 4 × IC50 (according to the cell specific IC50 value) and were then added to the cells. Images were then taken at timepoints 4, 8, 20, and 24 h using the Leica microscope with a JAI TMC‐137 camera to assess wound closure. The images were analyzed using the Universal Grab 6.3 software (DCILabs), and the obtained data were used to determine the percentage of migration of the cells, using the following formula. (2) % Migration=Mean width of the wound atT=0−Mean width of the wound atT=X/Mean width of the wound atT=0×100

Bax/Bcl‐2 [1] = test: Bax/Bcl‐2 ratio by RT‐PCR, SUIT 2.28 cells; type: cell-based
Method: (§1) In order to understand modulation of downstream genes of CDK7, gene expression analysis by qPCR was performed in all cell lines. Cells (5 × 10^5/well) were seeded in 6‐well plates and treated with the compounds 1b and 1g at 1× and 4 × IC50 concentrations. Cell lysates were collected 24 h post‐treatment using 300 µL of TRIzol Reagent (Ambion, 15,596,018) per well. Total RNA was extracted by mixing 60 µL of chloroform to the samples, incubating for 3 min and centrifuging at 12,000 rcf for 15 min at 4 °C. The upper aqueous phase containing RNA was transferred to a new Eppendorf and mixed with 120 µL of cold isopropanol in order to allow the RNA to precipitate. Samples were incubated at RT for 10 min and were then centrifuged at 12,000 rcf for 10 min at 4 °C. The isopropanol was carefully removed, and the pellet was washed twice with 70% ETOH. Pellets were left to air dry and consequently resuspended in RNAse‐free water. Samples were left agitation on a thermomixer at 55 °C for 10 min at 600 rpm and were then quantified through NanoDrop technology (Thermo Scientific, NanoDrop One/One^c). RNA samples were stored at −80 °C.
(§2) In order to perform cDNA synthesis, the First Strand cDNA synthesis kit (Thermo Scientific, K1612) was used. The previously isolated RNA was mixed with 1 µL of oligo dT18 primer into a pcr tube. Nuclease free water was added to reach a final volume of 11 µL. Samples were centrifuged at 1200 rcf for 5 min and were then placed on a thermomixer at 65 °C for a few minutes. A master mix was prepared, including 4 µL of 5× reaction buffer, 1 µL of ribolock RNAse inhibitor, 2 µL of dntp mix (10 mM), and 2 µL of M‐mulv reverse transcriptase for each sample. In total 9 µL of master mix were added to each vial. Samples were centrifuged again and were finally synthesized, following a cycle of 60 min at 37 °C and 5 min at 70 °C. cDNA was now finally synthesized and could be stored at −20 °C. RT‐PCRs reactions were performed using SYBR Green (Bio‐Rad, 1,725,271) (5 µL per sample), primer mix (0.3 µM) (2 µL per sample), and cDNA (10 ng µL^− ^1) (3 µL per sample). […] RT‐PCR assays were carried out in a GeneAmp 5700 Sequence Detection System programmed to hold at 50 °C for 30 min, to hold at 95 °C for 10 min, and to complete 45 cycles of 95 °C for […] and 50 °C for 1 min. The genes that were investigated are shown in Table 5 , with their respective forward and reverse primer sequences.

Bax/Bcl‐2 [2] = test: Bax/Bcl‐2 ratio by RT‐PCR, PATU‐T cells; type: cell-based
Method: as §1, §2

[3] = target: phosphorylated CDK7 (p‐CDK7) (Homo sapiens, UniProt P50613); test: Phospho‐CDK7 (Thr170) cell‐based ELISA, PDAC3; parameters: endogenous in cells; host or cells: PDAC3 primary cells; conditions: PDAC3, 4 × IC50, ELISA
Method: To detect CDK7 and phospho‐CDK7 levels at Thr170 residue after treatment, an enzyme‐linked immunosorbent assay (Biomatik, Phospho‐CDK7 (Thr170) Colorimetric Cell‐Based ELISA Kit, Cat# EKA51274) was performed according to the manufacturer's protocols. […] The absorbance was read at 450 nm using a microplate reader.

Chain of phosphorylated CDK7 (p‐CDK7) (P50613 2-346 limits assumed): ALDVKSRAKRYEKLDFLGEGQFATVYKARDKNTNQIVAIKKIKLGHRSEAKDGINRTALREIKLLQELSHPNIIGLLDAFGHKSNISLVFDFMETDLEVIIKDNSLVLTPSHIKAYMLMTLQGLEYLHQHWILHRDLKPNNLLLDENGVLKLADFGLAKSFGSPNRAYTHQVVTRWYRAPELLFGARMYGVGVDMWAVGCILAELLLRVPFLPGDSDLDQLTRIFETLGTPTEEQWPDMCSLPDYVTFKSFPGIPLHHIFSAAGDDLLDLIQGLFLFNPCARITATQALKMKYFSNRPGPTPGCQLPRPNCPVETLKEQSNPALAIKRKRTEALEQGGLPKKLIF
Chain of phosphorylated CDK7 (p‐CDK7) (P51946 whole entry partner): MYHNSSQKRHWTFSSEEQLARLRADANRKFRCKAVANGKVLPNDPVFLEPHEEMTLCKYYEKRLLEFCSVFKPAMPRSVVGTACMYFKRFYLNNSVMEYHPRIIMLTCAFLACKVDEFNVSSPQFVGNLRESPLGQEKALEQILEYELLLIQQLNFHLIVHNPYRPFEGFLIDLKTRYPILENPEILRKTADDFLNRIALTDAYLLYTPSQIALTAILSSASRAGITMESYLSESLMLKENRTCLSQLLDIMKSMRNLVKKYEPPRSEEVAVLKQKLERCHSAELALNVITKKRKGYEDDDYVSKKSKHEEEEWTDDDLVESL
Chain of phosphorylated CDK7 (p‐CDK7) (P51948 whole entry partner): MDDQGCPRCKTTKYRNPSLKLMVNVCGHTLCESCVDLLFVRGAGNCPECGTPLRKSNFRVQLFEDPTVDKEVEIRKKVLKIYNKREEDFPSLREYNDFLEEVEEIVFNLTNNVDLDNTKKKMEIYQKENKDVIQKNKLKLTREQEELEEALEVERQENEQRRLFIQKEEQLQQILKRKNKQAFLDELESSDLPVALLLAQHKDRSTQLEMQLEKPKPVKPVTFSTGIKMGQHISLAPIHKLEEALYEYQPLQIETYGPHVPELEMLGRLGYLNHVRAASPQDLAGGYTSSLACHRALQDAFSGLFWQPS

**Q.** For `Nc1ncnc2cc(-c3c[nH]c4ccc(Br)cc34)nn12` [Compound 1b, 7‐(5‐Bromo‐1H‐indol‐3‐yl)pyrazolo[1,5‐a][1,3,5]triazin‐4‐amine], which “inhibition of cell migration” value (PATU‐T GR) is on record?
**A.** The value was “significantly inhibited as early as 4 h”.

**Q.** What about the “Bax/Bcl‐2 ratio SUIT 2.28” value (Bax/Bcl‐2 [1]; 1 × IC50, 24 h after treatment) of the same compound?
**A.** The value was 1.07.

**Q.** And the “Bax/Bcl‐2 ratio SUIT 2.28” value (Bax/Bcl‐2 [1]; 4 × IC50, 24 h after treatment)?
**A.** Its value is 1.45.

**Q.** What about the “Bax/Bcl‐2 ratio PATU‐T” value (Bax/Bcl‐2 [2]; 1 × IC50, 24 h after treatment) of the same compound?
**A.** Its value is 4.43.

**Q.** What about the “Bax/Bcl‐2 ratio PATU‐T” value (Bax/Bcl‐2 [2]; 4 × IC50, 24 h after treatment) of the same compound?
**A.** Its value is 4.03.

**Q.** And the “p‐CDK7 expression vs untreated” value [3]?
**A.** The value was “decrease in p‐CDK7 expression”.

**Q.** For `Cn1cc(-c2cc3ncnc(N)n3n2)c2cc(Br)ccc21` [Compound 1g, 7‐(5‐Bromo‐1‐methyl‐1H‐indol‐3‐yl)pyrazolo[1,5‐a][1,3,5]triazin‐4‐amine], which “inhibition of cell migration” value (PATU‐T GR) is on record?
**A.** The value was “significantly inhibited as early as 4 h”.

**Q.** What about the “Bax/Bcl‐2 ratio SUIT 2.28” value (Bax/Bcl‐2 [1]; 1 × IC50, 24 h after treatment) of the same compound?
**A.** The value was 1.21.

**Q.** And the “Bax/Bcl‐2 ratio SUIT 2.28” value (Bax/Bcl‐2 [1]; 4 × IC50, 24 h after treatment)?
**A.** Its value is 2.06.

**Q.** What about the “Bax/Bcl‐2 ratio PATU‐T” value (Bax/Bcl‐2 [2]; 1 × IC50, 24 h after treatment) of the same compound?
**A.** The value was 2.82.

**Q.** What about the “Bax/Bcl‐2 ratio PATU‐T” value (Bax/Bcl‐2 [2]; 4 × IC50, 24 h after treatment) of the same compound?
**A.** Its value is 3.74.

**Q.** And the “p‐CDK7 expression vs untreated” value [3]?
**A.** The value was “decrease in p‐CDK7 expression”.
